Assay results: publication PMC3739326 (The Biochemical journal, 2011)
Values belong to the compound of their own block, whether it stands above or below them.

Legend:
[1] = target: GST–TTBK2-(1–450) wild-type (Homo sapiens, UniProt Q6IQ55); assay: TTBK2 peptide kinase assay; format: biochemical
[2] = tested on: TTBK2[R181A or R181E] or TTBK2[A184G or A184E] mutants, GST–TTBK2-(1–450); assay: TTBK2 peptide kinase assay with phosphate-priming groove mutants; format: biochemical, human; settings: read-out: Km of peptide phosphorylation by TTBK2 mutants, 0.1 mM [γ-32P]ATP, 20 min at 30 °C, non-linear regression
[3] = tested on: lymphoblasts from SCA11-affected individuals; settings: cycloheximide as inhibitor of nonsense-mediated decay; cited from earlier work

Chain of GST–TTBK2-(1–450) wild-type (Q6IQ55 1-450): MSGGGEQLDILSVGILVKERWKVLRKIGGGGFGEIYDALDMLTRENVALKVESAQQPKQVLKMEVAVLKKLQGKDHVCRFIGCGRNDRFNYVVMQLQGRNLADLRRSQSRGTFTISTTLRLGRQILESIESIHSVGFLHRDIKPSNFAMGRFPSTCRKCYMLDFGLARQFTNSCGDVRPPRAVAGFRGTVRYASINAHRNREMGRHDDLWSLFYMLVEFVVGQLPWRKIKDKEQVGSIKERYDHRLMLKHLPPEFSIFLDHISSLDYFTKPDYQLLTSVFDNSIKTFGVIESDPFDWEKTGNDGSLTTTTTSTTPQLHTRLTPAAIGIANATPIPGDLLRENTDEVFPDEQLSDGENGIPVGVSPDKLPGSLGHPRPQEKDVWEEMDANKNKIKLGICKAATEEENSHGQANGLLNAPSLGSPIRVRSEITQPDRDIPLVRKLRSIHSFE

Compound: RRKDLHDDEEDEAMS*ITA [CK1tide, reference compound]
peptide phosphorylation by TTBK2 (in words) ([1]; TTBK2-(1–450)): phosphorylates CK1tide specifically at this serine residue

decrease of Km value by introducing a phosphotyrosine at the +2 position ([1]; relative to CK1tide): approximately 8 fold | Vmax of peptide phosphorylation by TTBK2 ([1]; wild-type TTBK2, 0.1 mM [γ-32P]ATP, 20 min at 30 °C, non-linear regression): 76 units/mg | Km [2]: 100 to 150 µM
Compound: RRKDLHDDEEDEAMSIYpA [TTBKtide]

Compound: C[C@@H]1C[C@@H]([C@H](O)CC2CC(=O)NC(=O)C2)C(=O)[C@@H](C)C1 [cycloheximide]
TTBK2 mRNA level [3]: increased TTBK2 mRNA to levels that are similar in the normal transcript
